Laboratory results published in PubChem BioAssay AID1963960 (Molecular Pharmacology Branch, DTP, NCI, 2024).
Values joined by “and” are separate entries in the source; they are usually repeats but may differ in a detail not shown here. Equal entries are not always repeated.

Tested on: MDA-MB-468 spheroids with HUVEC/MSC, viability
Assay: Anticancer human tumor MDA-MB-468 cell line growth inhibition [PI3K];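 note: spheroids exposed to agents for seven days before readout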;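 for viability, T/C: 100% = DMSO vehicle control viability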
Conditions: for viability, T/C: stronger effect = lower value
Procedure, shortened: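 Complex 3D spheroids (cancer cells + endothelial HUVEC + mesenchymal stem cells); drug pairs of targeted agent x inavolisib/alpelisib/duvelisib/copanlisib; half-log series from ~Cmax, max 10 microM if Cmax unknown; endpoint viability.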

[1] = curve of first compound, second compound 0.0316 µM
[2] = curve of first compound, second compound 0.1 µM
[3] = curve of first compound, second compound 0.316 µM
[4] = curve of first compound, second compound 1 µM
[5] = curve of first compound, second compound 3.16 µM
[6] = curve of first compound, second compound 10 µM
[7] = second compound 0.0316 µM, first compound 0.0316 µM
[8] = second compound 0.0316 µM, first compound 0.1 µM
[9] = second compound 0.0316 µM, first compound 0.316 µM
[10] = second compound 0.0316 µM, first compound 1 µM
[11] = second compound 0.0316 µM, first compound 3.16 µM
[12] = second compound 0.0316 µM, first compound 10 µM
[13] = second compound 0.1 µM, first compound 0.0316 µM
[14] = second compound 0.1 µM, first compound 0.1 µM
[15] = second compound 0.1 µM, first compound 0.316 µM
[16] = second compound 0.1 µM, first compound 1 µM
[17] = second compound 0.1 µM, first compound 3.16 µM
[18] = second compound 0.1 µM, first compound 10 µM
[19] = second compound 0.316 µM, first compound 0.0316 µM
[20] = second compound 0.316 µM, first compound 0.1 µM
[21] = second compound 0.316 µM, first compound 0.316 µM
[22] = second compound 0.316 µM, first compound 1 µM
[23] = second compound 0.316 µM, first compound 3.16 µM
[24] = second compound 0.316 µM, first compound 10 µM
[25] = second compound 1 µM, first compound 0.0316 µM
[26] = second compound 1 µM, first compound 0.1 µM
[27] = second compound 1 µM, first compound 0.316 µM
[28] = second compound 1 µM, first compound 1 µM
[29] = second compound 1 µM, first compound 3.16 µM
[30] = second compound 1 µM, first compound 10 µM
[31] = second compound 3.16 µM, first compound 0.0316 µM
[32] = second compound 3.16 µM, first compound 0.1 µM
[33] = second compound 3.16 µM, first compound 0.316 µM
[34] = second compound 3.16 µM, first compound 1 µM
[35] = second compound 3.16 µM, first compound 3.16 µM
[36] = second compound 3.16 µM, first compound 10 µM
[37] = second compound 10 µM, first compound 0.0316 µM
[38] = second compound 10 µM, first compound 0.1 µM
[39] = second compound 10 µM, first compound 0.316 µM
[40] = second compound 10 µM, first compound 1 µM
[41] = second compound 10 µM, first compound 3.16 µM
[42] = second compound 10 µM, first compound 10 µM
[43] = curve of first compound, second compound 0.00316 µM
[44] = curve of first compound, second compound 0.01 µM
[45] = second compound 0.00316 µM, first compound 0.0316 µM
[46] = second compound 0.00316 µM, first compound 0.1 µM
[47] = second compound 0.00316 µM, first compound 0.316 µM
[48] = second compound 0.00316 µM, first compound 1 µM
[49] = second compound 0.00316 µM, first compound 3.16 µM
[50] = second compound 0.00316 µM, first compound 10 µM
[51] = second compound 0.01 µM, first compound 0.0316 µM
[52] = second compound 0.01 µM, first compound 0.1 µM
[53] = second compound 0.01 µM, first compound 0.316 µM
[54] = second compound 0.01 µM, first compound 1 µM
[55] = second compound 0.01 µM, first compound 3.16 µM
[56] = second compound 0.01 µM, first compound 10 µM

## C#Cc1c(F)ccc2cc(O)cc(-c3ncc4c(N5CC6CCC(C5)N6)nc(OCC56CCCN5CC(F)C6)nc4c3F)c12 (centres undefined) + Cc1nc(NC(=O)N2CCCC2C(N)=O)sc1-c1ccnc(C(C)(C)C(F)(F)F)c1
[1]
  IC50: > 10 µM
[2]
  IC50: 7.36 µM
[3]
  IC50: 5.64 µM
[4]
  IC50: 3.09 µM
[5]
  IC50: 0.96 µM
[6]
  IC50: < 0.0316 µM
[7]
  viability, T/C: 83.2%
[8]
  viability, T/C: 84.4%
[9]
  viability, T/C: 80.2%
[10]
  viability, T/C: 106%
[11]
  viability, T/C: 100%
[12]
  viability, T/C: 52.3%
[13]
  viability, T/C: 91.1%
[14]
  viability, T/C: 89.1%
[15]
  viability, T/C: 88.9%
[16]
  viability, T/C: 101%
[17]
  viability, T/C: 79.9%
[18]
  viability, T/C: 39.2%
[19]
  viability, T/C: 92.4%
[20]
  viability, T/C: 85.6%
[21]
  viability, T/C: 69.9%
[22]
  viability, T/C: 80.9%
[23]
  viability, T/C: 75.6%
[24]
  viability, T/C: 24.7%
[25]
  viability, T/C: 92.4%
[26]
  viability, T/C: 81.8%
[27]
  viability, T/C: 71.8%
[28]
  viability, T/C: 83.3%
[29]
  viability, T/C: 49.4%
[30]
  viability, T/C: 15.8%
[31]
  viability, T/C: 80.5%
[32]
  viability, T/C: 69.3%
[33]
  viability, T/C: 53.4%
[34]
  viability, T/C: 53.4%
[35]
  viability, T/C: 35.4%
[36]
  viability, T/C: 3.3%
[37]
  viability, T/C: 42.2%
[38]
  viability, T/C: 26.6%
[39]
  viability, T/C: 22.3%
[40]
  viability, T/C: 18.9%
[41]
  viability, T/C: 7.98%
[42]
  viability, T/C: 0.65%

## CC1(C)CCC(Nc2ncc(C(F)(F)F)c(-c3c[nH]c4c(P(C)(C)=O)c(C#N)ccc34)n2)CN1 (centres undefined) + CC(Nc1ccc2c(c1)OCCn1cc(N3C(=O)OCC3C(F)F)nc1-2)C(N)=O
[43]
  IC50: < 0.0316 µM
[44]
  IC50: < 0.0316 µM
[1]
  IC50: < 0.0316 µM
[2]
  IC50: < 0.0316 µM
[3]
  IC50: < 0.0316 µM
[4]
  IC50: < 0.0316 µM
[45]
  viability, T/C: 9.78%
[46]
  viability, T/C: 9.47%
[47]
  viability, T/C: 9.65%
[48]
  viability, T/C: 8.55%
[49]
  viability, T/C: 8.68%
[50]
  viability, T/C: 1.56%
[51]
  viability, T/C: 10.6%
[52]
  viability, T/C: 11.4%
[53]
  viability, T/C: 9.42%
[54]
  viability, T/C: 8.7%
[55]
  viability, T/C: 7.16%
[56]
  viability, T/C: 2.11%
[7]
  viability, T/C: 11.1%
[8]
  viability, T/C: 9.59%
[9]
  viability, T/C: 7.86%
[10]
  viability, T/C: 8.01%
[11]
  viability, T/C: 7.19%
[12]
  viability, T/C: 1.24%
[13]
  viability, T/C: 11.6%
[14]
  viability, T/C: 10%
[15]
  viability, T/C: 9.28%
[16]
  viability, T/C: 8.9%
[17]
  viability, T/C: 7.73%
[18]
  viability, T/C: 1.12%
[19]
  viability, T/C: 11.5%
[20]
  viability, T/C: 9.36%
[21]
  viability, T/C: 8.28%
[22]
  viability, T/C: 8.77%
[23]
  viability, T/C: 6.8%
[24]
  viability, T/C: 1.12%
[25]
  viability, T/C: 11.7%
[26]
  viability, T/C: 9%
[27]
  viability, T/C: 8.85%
[28]
  viability, T/C: 10.9%
[29]
  viability, T/C: 5.99%
[30]
  viability, T/C: 1.09%

## C=CC(=O)N1CCN(c2nc(=O)n(-c3c(C)ccnc3C(C)C)c3nc(-c4c(O)cccc4F)c(F)cc23)C(C)C1 (centres undefined) + CC(Nc1ccc2c(c1)OCCn1cc(N3C(=O)OCC3C(F)F)nc1-2)C(N)=O
[43]
  IC50: > 10 µM
[44]
  IC50: > 10 µM
[1]
  IC50: > 10 µM
[2]
  IC50: > 10 µM
[3]
  IC50: > 10 µM
[4]
  IC50: 7.86 µM
[45]
  viability, T/C: 85.4%
[46]
  viability, T/C: 92.4%
[47]
  viability, T/C: 98.7%
[48]
  viability, T/C: 107%
[49]
  viability, T/C: 98.3%
[50]
  viability, T/C: 82.5%
[51]
  viability, T/C: 91.3%
[52]
  viability, T/C: 101%
[53]
  viability, T/C: 82.3%
[54]
  viability, T/C: 101%
[55]
  viability, T/C: 97.3%
[56]
  viability, T/C: 73%
[7]
  viability, T/C: 92.5%
[8]
  viability, T/C: 95.3%
[9]
  viability, T/C: 87.1%
[10]
  viability, T/C: 86.8%
[11]
  viability, T/C: 96.4%
[12]
  viability, T/C: 66.1%
[13]
  viability, T/C: 104%
[14]
  viability, T/C: 82.5%
[15]
  viability, T/C: 87.4%
[16]
  viability, T/C: 102%
[17]
  viability, T/C: 86%
[18]
  viability, T/C: 59.6%
[19]
  viability, T/C: 84.5%
[20]
  viability, T/C: 66.2%
[21]
  viability, T/C: 76.4%
[22]
  viability, T/C: 91.4%
[23]
  viability, T/C: 93.6%
[24]
  viability, T/C: 55.9%
[25]
  viability, T/C: 82.6%
[26]
  viability, T/C: 93.9%
[27]
  viability, T/C: 77.8%
[28]
  viability, T/C: 84.7%
[29]
  viability, T/C: 64%
[30]
  viability, T/C: 46.3%

## C=CC(=O)N1CCN(c2nc(=O)n(-c3c(C)ccnc3C(C)C)c3nc(-c4c(O)cccc4F)c(F)cc23)C(C)C1 (centres undefined)
Compound 0.0316 µM
  viability, T/C: 94.1% [middle of 4 runs]
Compound 0.1 µM
  viability, T/C: 96.2% [middle of 4 runs]
Compound 1 µM
  viability, T/C: 107% (2×) and 89.3% and 105%
Compound 3.16 µM
  viability, T/C: 101% [middle of 4 runs]
Compound 10 µM
  viability, T/C: 78.6% [middle of 4 runs]
Curve of compound
  IC50: > 10 µM

## CNC(=O)c1ccc(N2C(=S)N(c3ccc(C#N)c(C(F)(F)F)c3)C(=O)C2(C)C)cc1F + CC(Nc1ncnc2nc[nH]c12)c1cc2cccc(Cl)c2c(=O)n1-c1ccccc1
[1]
  IC50: > 10 µM
[2]
  IC50: > 10 µM
[3]
  IC50: > 10 µM
[4]
  IC50: > 10 µM
[5]
  IC50: 7.73 µM
[6]
  IC50: < 0.0316 µM
[7]
  viability, T/C: 78.9%
[8]
  viability, T/C: 80%
[9]
  viability, T/C: 77.2%
[10]
  viability, T/C: 90.6%
[11]
  viability, T/C: 89.7%
[12]
  viability, T/C: 73.1%
[13]
  viability, T/C: 88%
[14]
  viability, T/C: 79.8%
[15]
  viability, T/C: 73.4%
[16]
  viability, T/C: 91.3%
[17]
  viability, T/C: 81.1%
[18]
  viability, T/C: 63.4%
[19]
  viability, T/C: 72%
[20]
  viability, T/C: 72.5%
[21]
  viability, T/C: 71.5%
[22]
  viability, T/C: 77%
[23]
  viability, T/C: 70.7%
[24]
  viability, T/C: 61.1%
[25]
  viability, T/C: 58.2%
[26]
  viability, T/C: 64.5%
[27]
  viability, T/C: 67.4%
[28]
  viability, T/C: 75%
[29]
  viability, T/C: 55.5%
[30]
  viability, T/C: 56.3%
[31]
  viability, T/C: 52.6%
[32]
  viability, T/C: 56.3%
[33]
  viability, T/C: 53.4%
[34]
  viability, T/C: 57.1%
[35]
  viability, T/C: 56.8%
[36]
  viability, T/C: 42.1%
[37]
  viability, T/C: 40.1%
[38]
  viability, T/C: 35.8%
[39]
  viability, T/C: 36.1%
[40]
  viability, T/C: 38%
[41]
  viability, T/C: 35.7%
[42]
  viability, T/C: 26.9%
